# Source: US8895733B2 (Novartis AG, priority 2010, dated 2014)
# pIC50: −log10 of the molar value.
# Biological target: T1, Nav 1.7 (Homo sapiens, UniProt Q15858)
# T1 construct: expressed in transfected cells
# Experiment: Whole-cell voltage clamp electrophysiology, manual patch clamp (marker b in Table of Examples)
# Type: cell-based
# Conditions: 10 μM; marker b: Manual patch clamp data
# Text: a.IonWork Quattro data, b=Manual patch clamp data, c=Automated patch clamp data M=Method
# Whole-Cell Voltage Clamp Electrophysiology Assay
# Patch-clamp electrophysiology is considered the gold standard technique for investigation of ion channel function and pharmacology. Using this method, sodium channel currents can be measured in cells, which stably (or transiently) express the sodium channel subtype of interest. Application of compounds during such experiments provides a functional measure of the activity and potency of compounds affecting the ion channel of interest.
# Electrophysiological studies can also be performed using the whole cell configuration of the standard manual patch clamp technique as described in the literature (e.g. Pflugers Arch., 1981, 391(2), 85-100). In this assay, cells that express the voltage-gated sodium channel protein of interest are exposed to the drugs by conventional microperfusion systems, or by a home-built perfusion system. A suitable voltage stimulus protocol is used to activate the voltage-gated sodium channels.
# A suitable voltage stimulus protocol is used to activate voltage-gated sodium channel proteins of interest. A typical stimulus protocol may consist of sweeps of sequential voltage pulses starting from a holding potential (i.e. −65 mV), to a more positive and depolarising test pulse potential (i.e. −10 mV) and finally to a more negative and hyperpolarising potential (i.e. −100 mV). According to the biophysics of the voltage-gated ion channel of interest and interest in channel configuration the voltages and durations of the pulses as well as the overall frequency of sweeps applied might vary. Accordingly, a stimulus protocol was designed to assess compounds due to their potential to block NaV1.7 channels primarily in inactivated state. Selectivity over other voltage-gated sodium channel members was assessed by protocols that reflect the native function of the channels (i.e. heart rate or firing of neurons).
# Electrophysiological studies can also be performed using the whole cell configuration of the standard manual patch clamp technique as described in the literature (e.g. Pflugers Arch., 1981, 391(2), 85-100). In this assay, cells that express the human voltage-gated sodium channel protein of interest are exposed to the drugs by conventional microperfusion systems, or by a home-built perfusion system. A suitable voltage stimulus protocol is used to activate the voltage-gated sodium channels. A suitable voltage stimulus protocol may consist of sequential voltage pulses from a holding potential, each first hyperpolarizing the cell, then depolarizing the channels for a brief period. A particularly suitable holding potential may be a voltage allowing a fraction of channels to remain in an inactivated state, like −60 mV. A suitable hyperpolarizing voltage and duration may be −120 mV for 100 ms, and depolarization voltage and duration may be −20 mV for 25 ms, and a suitable frequency of pulses may be 0.1 Hz, but may also have other parameters. Accordingly, a stimulus protocol was designed to assess compounds due to their potential to block NaV1.7 channels primarily in inactivated state. Selectivity over other voltage-gated sodium channel members was assessed by protocols that reflect the native function of the channels (i.e. heart rate or firing of neurons).
# T1 sequence (Q15858 whole entry): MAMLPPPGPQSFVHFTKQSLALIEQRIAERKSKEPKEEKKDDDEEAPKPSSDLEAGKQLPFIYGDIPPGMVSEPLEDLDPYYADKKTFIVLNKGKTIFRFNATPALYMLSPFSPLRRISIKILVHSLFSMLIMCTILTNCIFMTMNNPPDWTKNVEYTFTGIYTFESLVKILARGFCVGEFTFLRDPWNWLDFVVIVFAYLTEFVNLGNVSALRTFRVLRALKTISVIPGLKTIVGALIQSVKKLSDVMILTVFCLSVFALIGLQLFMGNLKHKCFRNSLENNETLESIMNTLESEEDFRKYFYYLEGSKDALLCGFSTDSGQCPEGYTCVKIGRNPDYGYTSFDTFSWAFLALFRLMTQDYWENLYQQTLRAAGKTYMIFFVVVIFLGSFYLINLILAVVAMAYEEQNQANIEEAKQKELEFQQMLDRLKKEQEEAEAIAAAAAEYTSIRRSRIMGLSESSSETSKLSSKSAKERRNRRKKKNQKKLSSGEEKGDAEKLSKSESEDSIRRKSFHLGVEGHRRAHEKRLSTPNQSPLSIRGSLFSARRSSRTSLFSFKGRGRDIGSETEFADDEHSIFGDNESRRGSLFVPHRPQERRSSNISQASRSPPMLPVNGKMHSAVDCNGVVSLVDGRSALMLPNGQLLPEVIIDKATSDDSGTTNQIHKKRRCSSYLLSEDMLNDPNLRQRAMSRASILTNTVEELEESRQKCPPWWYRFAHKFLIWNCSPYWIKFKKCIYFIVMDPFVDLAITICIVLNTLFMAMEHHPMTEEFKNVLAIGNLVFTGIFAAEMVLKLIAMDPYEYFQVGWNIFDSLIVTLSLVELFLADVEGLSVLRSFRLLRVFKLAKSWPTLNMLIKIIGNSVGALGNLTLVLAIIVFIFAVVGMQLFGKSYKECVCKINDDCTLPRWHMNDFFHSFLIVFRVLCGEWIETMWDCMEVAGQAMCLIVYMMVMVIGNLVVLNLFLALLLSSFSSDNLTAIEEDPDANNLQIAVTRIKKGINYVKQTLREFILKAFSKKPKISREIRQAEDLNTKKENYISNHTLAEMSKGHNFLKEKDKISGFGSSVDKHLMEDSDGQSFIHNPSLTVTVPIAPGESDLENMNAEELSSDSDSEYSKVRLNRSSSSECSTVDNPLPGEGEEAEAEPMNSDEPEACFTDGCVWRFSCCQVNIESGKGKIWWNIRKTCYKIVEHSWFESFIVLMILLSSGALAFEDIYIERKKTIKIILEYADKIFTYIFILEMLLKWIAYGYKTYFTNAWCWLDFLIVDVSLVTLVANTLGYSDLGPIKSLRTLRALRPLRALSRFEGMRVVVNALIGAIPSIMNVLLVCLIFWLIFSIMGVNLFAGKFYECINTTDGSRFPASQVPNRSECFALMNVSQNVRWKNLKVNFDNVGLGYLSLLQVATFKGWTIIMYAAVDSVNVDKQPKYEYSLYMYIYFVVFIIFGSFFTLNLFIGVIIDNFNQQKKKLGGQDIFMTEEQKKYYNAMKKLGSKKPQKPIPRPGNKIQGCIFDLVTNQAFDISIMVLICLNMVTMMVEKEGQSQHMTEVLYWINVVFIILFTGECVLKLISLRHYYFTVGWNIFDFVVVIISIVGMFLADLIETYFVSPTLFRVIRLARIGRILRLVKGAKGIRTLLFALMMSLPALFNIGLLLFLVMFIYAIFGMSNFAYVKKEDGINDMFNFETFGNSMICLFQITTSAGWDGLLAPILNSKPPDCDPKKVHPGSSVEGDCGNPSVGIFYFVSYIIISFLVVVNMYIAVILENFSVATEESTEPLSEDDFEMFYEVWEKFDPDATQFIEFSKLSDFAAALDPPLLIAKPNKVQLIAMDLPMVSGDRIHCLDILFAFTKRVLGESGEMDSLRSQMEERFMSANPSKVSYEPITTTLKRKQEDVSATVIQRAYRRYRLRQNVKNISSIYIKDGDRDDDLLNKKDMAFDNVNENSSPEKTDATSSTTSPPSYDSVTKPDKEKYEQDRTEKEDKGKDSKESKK
row,"Nav 1.7 activity, % at 10 μM",SMILES
1,44% (10 μM)^b,"CN(c1ccccc1)c1nc(N)nc(-c2noc(-c3cccc(Cl)c3)n2)n1 [Example 35, 6-[5-(3-Chloro-phenyl)-[1,2,4]oxadiazol-3-yl]-N-methyl-N-phenyl-[1,3,5]triazine-2,4-diamine]"
2,50% (10 μM)^b,"CN(c1ccccc1)c1nc(N)nc(-c2noc(-c3ccoc3)n2)n1 [Example 37, 6-(5-Furan-3-yl-[1,2,4]oxadiazol-3-yl)-N-methyl-N-phenyl-[1,3,5]triazine-2,4-diamine]"

# Same assay, conditions: marker b = Manual patch clamp data; read-out: Nav 1.7 activity
row,pIC50,SMILES
1,6.05,"CN(c1ccccc1)c1nc(N)nc(-c2noc(-c3ccnc(OCC(F)(F)F)c3)n2)n1 [Example 472, 2-N-methyl-2-N-phenyl-6-{5-[2-(2,2,2-trifluoroethoxy)pyridin-4-yl]-1,2,4-oxadiazol-3-yl}-1,3,5-triazine-2,4-diamine]"
2,6.12,"COC1CCN(c2nc(-c3nc(N)nc(Nc4ccccc4)n3)no2)CC1 [Example 238, 6-[5-(4-methoxypiperidin-1-yl)-1,2,4-oxadiazol-3-yl]-2-N-phenyl-1,3,5-triazine-2,4-diamine]"
3,6.40,"CN(c1ccccc1)c1nc(N)nc(-c2noc(C(=O)N3CCC(OCC(F)(F)F)CC3)n2)n1 [Example 262, 2-N-methyl-2-N-phenyl-6-(5-{[4-(2,2,2-trifluoroethoxy)piperidin-1-yl]carbonyl}-1,2,4-oxadiazol-3-yl)-1,3,5-triazine-2,4-diamine]"
4,6.47,"Nc1nc(Nc2ccccc2)nc(-c2noc(-c3ncccc3F)n2)n1 [Example 346, 6-[5-(3-Fluoropyridin-2-yl)-1,2,4-oxadiazol-3-yl]-2-N-phenyl-1,3,5-triazine-2,4-diamine]"
5,6.55,"CN(c1ccccc1)c1nc(N)nc(-c2noc(N3CCC(COCC4CC4)CC3)n2)n1 [Example 216, 6-(5-{4-[(Cyclopropylmethoxy)methyl]piperidin-1-yl}-1,2,4-oxadiazol-3-yl)-2-N-methyl-2-N-phenyl-1,3,5-triazine-2,4-diamine]"
6,6.51,"COc1cnc(-c2nc(-c3nc(N)nc(N(C)c4ccccc4)n3)no2)c(OC)c1 [Example 282, 6-[5-(3,5-Dimethoxypyridin-2-yl)-1,2,4-oxadiazol-3-yl]-2-N-methyl-2-N-phenyl-1,3,5-triazine-2,4-diamine]"

# Same assay, conditions: marker b: Manual patch clamp data; read-out: Nav 1.7 activity
row,pIC50,SMILES
1,7.03,"CN(c1nc(N)nc(-c2noc(-c3ccco3)n2)n1)c1cc(F)ccc1F [Example 104, N-(2,5-Difluoro-phenyl)-6-(5-furan-2-yl-[1,2,4]oxadiazol-3-yl)-N-methyl-[1,3,5]triazine-2,4-diamine]"
2,5.33,CN(c1ccccc1)c1nc(N)nc(-c2noc(C3CCOC3)n2)n1 (stereo not shown) [Example 48]
3,5.95,"CCN(c1ccccc1)c1nc(N)nc(-c2noc(-c3nccs3)n2)n1 [Example 38, N-Ethyl-N-phenyl-6-(5-thiazol-2-yl-[1,2,4]oxadiazol-3-yl)-[1,3,5]triazine-2,4-diamine]"
4,6.78,"CN(c1ccccc1)c1nc(N)nc(-c2noc(-c3ccc(Cl)cc3)n2)n1 [Example 36, 6-[5-(4-Chloro-phenyl)-[1,2,4]oxadiazol-3-yl]-N-methyl-N-phenyl-[1,3,5]triazine-2,4-diamine]"
5,6.70,"CN(c1nc(N)nc(-c2noc(-c3ccco3)n2)n1)c1ccccc1F [Example 14, N-(2-Fluoro-phenyl)-6-(5-furan-2-yl-[1,2,4]oxadiazol-3-yl)-N-methyl-[1,3,5]triazine-2,4-diamine]"
6,6.71,"COC(=O)c1ccc(-c2nc(-c3nc(N)nc(N(C)c4ccccc4)n3)no2)s1 [Example 82, 5-{3-[4-amino-6-(methyl-phenyl-amino)-[1,3,5]triazin-2-yl]-[1,2,4]oxadiazol-5-yl}-thiophene-2-carboxylic acid methyl ester]"
7,6.57,"Cc1cccc(N(C)c2nc(N)nc(-c3noc(-c4ccco4)n3)n2)c1 [Example 3, 6-(5-Furan-2-yl-[1,2,4]oxadiazol-3-yl)-N-methyl-N-(3-methylphenyl)-[1,3,5]triazine-2,4-diamine]"
8,7.68,"COc1cccc(F)c1-c1nc(-c2nc(N)nc(N(C)c3ccccc3)n2)no1 [Example 81, 6-[5-(2-Fluoro-6-methoxy-phenyl)-[1,2,4]oxadiazol-3-yl]-N-methyl-N-phenyl-[1,3,5]triazine-2,4-diamine]"
9,6.25,"CN(c1ccccc1)c1nc(N)nc(-c2noc(-c3ccn[nH]3)n2)n1 [Example 61, N-Methyl-N-phenyl-6-[5-(2H-pyrazol-3-yl)-[1,2,4]oxadiazol-3-yl]-[1,3,5]triazine-2,4-diamine]"
10,7.38,"Nc1nc(Nc2cccc(F)c2)nc(-c2noc(-c3ccco3)n2)n1 [Example 117, N-(3-Fluorophenyl)-6-(5-furan-2-yl-[1,2,4]oxadiazol-3-yl)-[1,3,5]triazine-2,4-diamine]"
11,6.18,"Cc1ccc(N(C)c2nc(N)nc(-c3noc(-c4ccco4)n3)n2)cc1 [Example 4, 6-(5-Furan-2-yl-[1,2,4]oxadiazol-3-yl)-N-methyl-N-(4-methylphenyl)-[1,3,5]triazine-2,4-diamine]"
12,7.27,"Nc1nc(Nc2cccc(Cl)c2F)nc(-c2noc(-c3ccco3)n2)n1 [Example 111, N-(3-Chloro-2-fluoro-phenyl)-6-(5-furan-2-yl-[1,2,4]oxadiazol-3-yl)-[1,3,5]triazine-2,4-diamine]"
13,6.97,"CN(c1ccccc1)c1nc(N)nc(-c2noc(-c3ccccc3Cl)n2)n1 [Example 23, 6-[5-(2-Chloro-phenyl)-[1,2,4]oxadiazol-3-yl]-N-methyl-N-phenyl-[1,3,5]triazine-2,4-diamine]"
14,6.20,"CN(c1ccccc1)c1nc(N)nc(-c2noc(-c3ccc(OC(F)(F)F)nc3)n2)n1 [Example 133, 2-N-methyl-2-N-phenyl-6-{5-[6-(trifluoromethoxy)pyridin-3-yl]-1,2,4-oxadiazol-3-yl}-1,3,5-triazine-2,4-diamine]"
15,6.11,"CN(c1ccccc1)c1nc(N)nc(-c2noc(-c3ccccn3)n2)n1 [Example 9, N-Methyl-N-phenyl-6-(5-pyridin-2-yl-[1,2,4]oxadiazol-3-yl)-[1,3,5]triazine-2,4-diamine]"
16,7.36,"CN(c1cccc(F)c1)c1nc(N)nc(-c2noc(-c3ccc(OCC4CC4)nc3)n2)n1 [Example 135, 6-{5-[6-(cyclopropylmethoxy)pyridin-3-yl]-1,2,4-oxadiazol-3-yl}-2-N-(3-fluorophenyl)-2-N-methyl-1,3,5-triazine-2,4-diamine]"
17,5.65,"CN(c1ccccc1)c1nc(N)nc(-c2noc(-c3cncc(N)c3)n2)n1 [Example 54, 6-[5-(5-Amino-pyridin-3-yl)-[1,2,4]oxadiazol-3-yl]-N-methyl-N-phenyl-[1,3,5]triazine-2,4-diamine]"
18,7.04,"Nc1nc(Nc2ccccc2)nc(-c2noc(-c3ccco3)n2)n1 [Example 2, 6-(5-Furan-2-yl-[1,2,4]oxadiazol-3-yl)-N-phenyl-[1,3,5]triazine-2,4-diamine]"
19,6.29,"CN(c1ccccc1)c1nc(N)nc(-c2noc(N3CCCCC3)n2)n1 [Example 46, N-Methyl-N-phenyl-6-(5-piperidin-1-yl-[1,2,4]oxadiazol-3-yl)-[1,3,5]triazine-2,4-diamine]"
20,6.83,"COc1ccc(-c2nc(-c3nc(N)nc(N(C)c4ccccc4)n3)no2)cc1 [Example 26, 6-[5-(4-Methoxy-phenyl)-[1,2,4]oxadiazol-3-yl]-N-methyl-N-phenyl-[1,3,5]triazine-2,4-diamine]"
